Measured values as given in patent publication US20220026411A1, “ANALYTICAL METHODS AND ARRAYS FOR USE IN THE SAME” (SENZAGEN AB, priority 2019, published 2022).
Where two headings read alike, the source gives them in different places.

Key:
[1] = cited from earlier work; for True group: true group belonging of external test chemicals; for Function in study: training data set, as defined by available literature and expert consensus
SenzaCell [2] = assay: GARDair assay: gene expression signature (GRPS, 28 genes) of chemically exposed DC-like cells, SVM classification; settings: finalized GARDair prediction model; RS if mean SVM decision value (n=3) > 0; 24 h exposure at GARD input concentration
Method: (§1) All exposures were performed in repeated triplicate experiments in a controlled setting, thus generating a coherent dataset with high statistical power optimized for subsequent biomarker discovery.
(§2) A prediction model was trained and frozen, based on a Support Vector Machine (SVM), using the samples of the training data set with a binary “function in study” (respiratory sensitizer/non-respiratory sensitizer) as the dependent variable, and the gene expression values of the GRPS as the independent variables (i.e. predictors), see also Table 4.
(§3) Having established an optimized prediction model and associated protocols, the assay was challenged with two sets of external samples, referred to as test data sets.
(§4) The human myeloid leukemia-derived cell line SenzaCell (available through ATCC), acting as an in vitro model of human Dendritic Cell (DC), is maintained in a-MEM (Thermo Scientific Hyclone, Logan, Utah) supplemented with 20% (volume/volume) fetal calf serum (Life Technologies, Carlsbad, Calif.) and 40 ng/ml recombinant human Granulocyte Macrophage Colony Stimulating Factor (rhGM-CSF) (Miltenyi Biotec, Germany). A media change during expansion is performed every 3-4 days. Working stocks of cultures are grown for a maximum of 16 passages or two months after thawing. For chemical stimulation of cells, exposed cells are incubated for 24 h at 37° C., 5% CO2 and 95% humidity.
(§5) Some Test Substances were poorly dissolved in cell media; therefore, the maximum soluble concentration was assessed as well. The Test Substance that was to be tested was titrated to concentrations ranging from 1 μM to the maximum soluble concentration in cell media. For freely soluble Test Substances, 500 μM was set as the upper limit of the titration range. For Test Substances dissolved in DMSO, the in-well concentration of DMSO was 0.1%. After incubation for 24 h at 37° C., 5% CO2 and 95% humidity, harvested cells were stained with the viability marker Propidium Iodide (PI) (BD Bioscience, USA) and analyzed by flow cytometry. PI-negative cells were defined as viable, and the relative viability of cells stimulated with each concentration in the titration range was calculated as
(§6) For non-toxic Test Substances, a concentration of 500 μM was used if possible. For non-toxic Test Substances that were insoluble at 500 μM in cell media, the highest soluble concentration was used. Whichever of these three criteria was met, only one concentration will be used for gene expression analysis. The concentration to be used for any given chemical was termed the ‘GARD input concentration’.
(§7) Once the GARD input concentration for Test Substances to be assayed was established, the cells were stimulated again as described above, this time only using the GARD input concentration. All assessments of Test Substances and Benchmark Controls were assayed in biological triplicates, performed at different time-points and using different cell cultures. After incubation for 24 h at 37° C., 5% CO2 and 95% humidity, cell culture was lysed in TRlzol reagent (Life Technologies) and stored at −20° C. until RNA was extracted. In parallel, a small sample of stimulated cells was taken for PI staining and analysis with flow cytometry, to ensure the expected relative viability of stimulated cells was reached.

SenzaCell [3] = test system: SenzaCell
Method: as §1, §2, §3, §4, §5, §6, §7

Row | SMILES | True group [1] | Prediction Test set 1 (SenzaCell [2]) | other results
1 | Sc1nc2ccccc2s1 [2-Mercaptobenzothiazole] | NRS |  | 
2 | Nc1ccccc1O [2-aminophenol] |  |  | Function in study [1]: SS/NRS
3 | O=C(O)c1ccc(O)cc1 [4-Hydroxybenzoic acid] | NRS | NRS | 
4 | O=Cc1ccccc1 [Benzaldehyde] |  | NRS | 
5 | OCC=Cc1ccccc1 [Cinnamyl alcohol] | NRS | NRS | 
6 | C[S+](C)[O-] [DMSO] | NRS |  | Prediction Test set 2 (SenzaCell [2]): NRS
7 | O=[N+]([O-])c1ccc(Cl)c([N+](=O)[O-])c1 [DNCB] | NRS | NRS | Prediction Test set 2 (SenzaCell [2]): NRS
8 | CCOC(=O)c1ccccc1C(=O)OCC [Diethyl phthalate] | NRS | NRS | 
9 | C=CCc1ccc(O)c(OC)c1 [Eugenol] | NRS | NRS | 
10 | OCC(O)CO [Glycerol] |  | NRS | 
11 | CC=Cc1ccc(O)c(OC)c1 [Isoeugenol] | NRS | NRS | 
12 | CCCCCCCC(=O)O [Octanoic acid] | NRS | NRS | 
13 | Nc1ccc(N)cc1 [PPD] | NRS | NRS | Prediction Test set 2 (SenzaCell [2]): NRS
14 | Oc1ccccc1 [Phenol] |  |  | Prediction Test set 1 (SenzaCell [3]): NRS
15 | Oc1cccc(O)c1 [Resorcinol] |  | NRS | 
16 | CCCCCCCCCCCCOS(=O)(=O)[O-].[Na+] [SDS] | NRS | NRS | 
17 | O=C(O)c1ccccc1O [Salicylic acid] | NRS |  | 
18 | Clc1ccccc1 [chlorobenzene] |  |  | Prediction Test set 2 (SenzaCell [2]): NRS
19 | CCCCCCC(C=O)=Cc1ccccc1 [hexylcinnamic aldehyde] |  |  | Function in study [1]: SS/NRS
20 | CC1(C)S[C@@H]2[C@H](NC(=O)Cc3ccccc3)C(=O)N2[C@H]1C(=O)O [penicillin G] |  |  | Function in study [1]: SS/NRS
21 | [K+].[K+].[O]=[Cr](=[O])([O-])[O][Cr](=[O])(=[O])[O-] [potassium dichromate] |  |  | Function in study [1]: SS/NRS
